In assay [1] the target is T1, PKN1 (Homo sapiens, UniProt Q16512). The assay can be described thus: PKN1 kinase inhibition, off-chip mobility shift assay. Set-up: Full-length, FLAG-tagged human PKN1, PKN2 and PKN3 were expressed in mammalian HEK-293 cells; host or cells: HEK-293 (transient transfection, pcDNA4/TO). Format: biochemical.
Method: (§4) The activity of all PKN proteins was monitored through the use of a highly sensitive off-chip mobility shift assay utilizing a LabChip EZ Reader II instrument (Caliper Life Sciences/PerkinElmer); this assay format has been described elsewhere [31]. […] Peptide concentration was adjusted according to purity and peptide content. For inhibition studies, the inhibitor was pre-incubated with enzyme for 15 min at room temperature. All reactions were initiated with ATP and conducted at room temperature (~22°C).
(§5) All data were globally fit using non-linear regression and GraphPad Prism software. Non-linear data were converted to double-reciprocal Lineweaver–Burk plots for visual and presentation purposes only. Kinetic data were analysed in duplicate, and each plot is representative of at least two independent experiments.
(§6) For enzyme inhibition studies, data were fit to eqns (2)–(4) for competitive, non-competitive and uncompetitive inhibition, respectively: (2) v=Vmax[S]/[S]+KM1+[I]/Ki (3) v=Vmax[S]/([S]+KM)1+[I]/Ki (4) v=Vmax[S]/[S]1+[I]/αKi+KM
(§7) For eqns (1)–(4), v is measured velocity, Vmax is maximum velocity, [ATP], [Pep] and [S] are concentrations of ATP, peptide and varied substrate, respectively; Kia is the equilibrium dissociation constant of ATP, KM,ATP, KM,Pep and KM are the Michaelis–Menten constants for ATP, peptide and the varied substrate, respectively. [I] is the inhibitor concentration, α describes the preference for inhibitor binding to either free or substrate bound enzyme and Ki is the inhibitor equilibrium dissociation constant.
Assay [2] has as its system PKN1, PKN2 and PKN3. The assay can be described thus: PKN isoform selectivity from Ki values (Ki ratio). It counts as biochemical, human. As to conditions: for Isoform selectivity: isoform(s) preferred, defined as ~10-fold or greater Ki ratio.
From the text: The activity of all PKN proteins was monitored through the use of a highly sensitive off-chip mobility shift assay utilizing a LabChip EZ Reader II instrument (Caliper Life Sciences/PerkinElmer); this assay format has been described elsewhere [31]. […] The likely site of phosphorylation is underlined, as determined through comparison with the published phosphorylation consensus sequence for PKN1 and PKN3 substrates [27]. […] Peptide concentration was adjusted according to purity and peptide content. For inhibition studies, the inhibitor was pre-incubated with enzyme for 15 min at room temperature. All reactions were initiated with ATP and conducted at room temperature (~22°C).
In assay [3] the target is T2, PKN3 (Homo sapiens, UniProt Q6P5Z2). The assay can be described thus: PKN3 kinase inhibition, off-chip mobility shift assay. It counts as biochemical. Also noted: Full-length, FLAG-tagged human PKN1, PKN2 and PKN3 were expressed in mammalian HEK-293 cells.
Method: as §4, §5, §6, §7
In assay [4] the target is T3, PKN2 (Homo sapiens, UniProt Q16513). The assay can be described thus: PKN2 kinase inhibition, off-chip mobility shift assay. It counts as biochemical. Set-up: Full-length, FLAG-tagged human PKN1, PKN2 and PKN3 were expressed in mammalian HEK-293 cells; host or cells: HEK-293 (transient transfection, pcDNA4/TO).
Method: as §4, §5, §6, §7
In assay [5] the target is T2, PKN3. The assay can be described thus: Lipid activation of PKN3 kinase activity, off-chip mobility shift assay. Set-up: Full-length, FLAG-tagged human PKN1, PKN2 and PKN3 were expressed in mammalian HEK-293 cells. It counts as biochemical. As to conditions: increase in initial rate; saturating ATP (500 μM), 3 μM peptide, 3 nM PKN3. The protocol:
(§1) Lipids were supplied as a solid powders, ethanol, or chloroform solutions. All solids were dissolved directly into assay buffer and briefly water bath sonicated at room temperature for 10 min. Lipids supplied as solutions in organic solvent were dried under a gentle stream of nitrogen, resuspended in assay buffer, and similarly sonicated. All lipids were prepared fresh daily.
(§2) The activity of all PKN proteins was monitored through the use of a highly sensitive off-chip mobility shift assay utilizing a LabChip EZ Reader II instrument (Caliper Life Sciences/PerkinElmer); this assay format has been described elsewhere. Kinase activity was monitored through the phosphorylation of a 5-FAM-labelled PKN substrate peptide found through Pfizer in-house optimization efforts and derived from the amino acid sequence of GSK3α (accession no. AAH51865.1) with the following sequence: 5-FAM-C6-[…]-NH2. The likely site of phosphorylation is underlined, as determined through comparison with the published phosphorylation consensus sequence for PKN1 and PKN3 substrates. Reaction buffer contained 25 mM Tris, pH 8.0, 5 mM MgCl2, 0.002% CHAPS and 2 mM DTT, with indicated protein, ATP and peptide concentrations. Peptide concentration was adjusted according to purity and peptide content. For inhibition studies, the inhibitor was pre-incubated with enzyme for 15 min at room temperature. All reactions were initiated with ATP and conducted at room temperature (~22°C). Reactions were terminated by the addition of EDTA, pH 8.0, at a final concentration of 25 mM. All reaction rates were determined to be linear with respect to time and enzyme concentration where no more than 20% of peptide substrate had been converted to product. Aliquots of each reaction were transferred in duplicate to a 384-well plate and analysed on a LabChip EZ Reader II with separation buffer containing 100 mM Hepes, pH 7.5, 0.015% Brij-35, 1 mM EDTA, 0.1% CR3 coating reagent, 1×CR8 coating reagent and 5% DMSO, with the following settings: downstream voltage: −500 V, upstream voltage: −2300 V, base pressure: −0.5 psi; screen pressure: −1.7 psi.
Ki values for representative inhibitors were determined by fitting initial reaction velocities to eqn (2) for competitive inhibition using the method of non-linear least-squares using GraphPad Prism. Turnover number (kcat) was calculated by normalizing Vmax values for enzyme concentration.
(§3) Figure 2 PKN responses to lipid activators in biochemical assays Lipids were prepared as described under the Experimental section, and kinase activity of PKN isoforms was measured using off-chip mobility shift assay described in the Methods section. Each lipid was titrated in the presence of 1 nM, 5 nM and 3 nM PKN1–3, respectively, 3 μM peptide and 500 μM ATP. vi is the initial rate at each concentration of lipid activator and vo is the initial rate in the absence of lipid.

Assay [6] concerns the target T1, PKN1. The assay can be described thus: Lipid activation of PKN1 kinase activity, off-chip mobility shift assay. Also noted: Full-length, FLAG-tagged human PKN1, PKN2 and PKN3 were expressed in mammalian HEK-293 cells; host or cells: HEK-293 (transient transfection, pcDNA4/TO). Format: biochemical. As to conditions: saturating ATP (500 μM), 3 μM peptide, 1 nM PKN1; for PKN1 Maximal fold activation: increase in initial rate; for EC50: lipid activator. Here is the method:
as §1
as §2, with “psi. […]” for “psi.”
as §3

Assay [7] has as its target T3, PKN2. The assay can be described thus: Lipid activation of PKN2 kinase activity, off-chip mobility shift assay. Format: biochemical. Set-up: Full-length, FLAG-tagged human PKN1, PKN2 and PKN3 were expressed in mammalian HEK-293 cells; host or cells: HEK-293 (transient transfection, pcDNA4/TO). To be noted: for effect on PKN2 kinase activity: in words, saturating ATP; for PKN2 Maximal fold activation: increase in initial rate. The protocol: as §1
as §2, with “psi. […]” for “psi.”
as §3

Where [8] appears, read: absence of lipids, fit to competitive inhibition, ±S.D., n=2, read-out: PKN1, Ki.
[9] abbreviates: absence of lipids, fit to competitive inhibition, ±S.D., n=2, read-out: PKN3, Ki.
Setting [10] is: absence of lipids, fit to competitive inhibition, ±S.D., n=2, read-out: PKN2, Ki.
[11] abbreviates: saturating ATP (500 μM), 3 μM peptide, 5 nM PKN2.

Like-named read-outs stand apart in the source and are kept apart here.

The results in this text go back to PMC3958129, “Enzyme kinetics and distinct modulation of the protein kinase N family of kinases by lipid activators and small molecule inhibitors” (Bioscience Reports, 2014).

T3 sequence (Q16513 whole entry): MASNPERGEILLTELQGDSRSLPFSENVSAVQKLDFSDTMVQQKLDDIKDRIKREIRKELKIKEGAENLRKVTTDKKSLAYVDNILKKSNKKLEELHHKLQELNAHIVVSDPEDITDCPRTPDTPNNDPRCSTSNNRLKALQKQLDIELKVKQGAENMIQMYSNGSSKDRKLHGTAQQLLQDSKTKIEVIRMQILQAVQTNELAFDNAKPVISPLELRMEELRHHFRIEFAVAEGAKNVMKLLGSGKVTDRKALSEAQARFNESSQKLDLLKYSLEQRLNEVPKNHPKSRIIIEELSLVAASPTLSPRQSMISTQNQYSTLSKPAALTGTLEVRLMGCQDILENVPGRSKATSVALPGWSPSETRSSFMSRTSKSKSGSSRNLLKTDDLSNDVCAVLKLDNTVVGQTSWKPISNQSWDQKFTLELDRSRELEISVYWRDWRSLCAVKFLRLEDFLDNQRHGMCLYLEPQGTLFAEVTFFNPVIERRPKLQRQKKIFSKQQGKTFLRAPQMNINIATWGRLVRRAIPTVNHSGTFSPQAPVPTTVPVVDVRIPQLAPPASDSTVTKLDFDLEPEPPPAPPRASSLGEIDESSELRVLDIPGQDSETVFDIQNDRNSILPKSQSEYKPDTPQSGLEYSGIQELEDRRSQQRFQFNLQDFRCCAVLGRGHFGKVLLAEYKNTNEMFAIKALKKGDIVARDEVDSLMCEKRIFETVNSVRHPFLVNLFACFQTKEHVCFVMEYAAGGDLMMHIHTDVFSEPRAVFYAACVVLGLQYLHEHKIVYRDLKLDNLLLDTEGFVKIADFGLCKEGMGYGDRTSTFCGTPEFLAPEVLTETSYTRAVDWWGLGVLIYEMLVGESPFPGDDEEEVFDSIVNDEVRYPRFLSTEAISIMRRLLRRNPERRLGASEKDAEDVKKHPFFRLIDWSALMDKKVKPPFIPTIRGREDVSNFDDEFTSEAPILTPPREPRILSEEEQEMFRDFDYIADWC
T2 sequence (Q6P5Z2 whole entry): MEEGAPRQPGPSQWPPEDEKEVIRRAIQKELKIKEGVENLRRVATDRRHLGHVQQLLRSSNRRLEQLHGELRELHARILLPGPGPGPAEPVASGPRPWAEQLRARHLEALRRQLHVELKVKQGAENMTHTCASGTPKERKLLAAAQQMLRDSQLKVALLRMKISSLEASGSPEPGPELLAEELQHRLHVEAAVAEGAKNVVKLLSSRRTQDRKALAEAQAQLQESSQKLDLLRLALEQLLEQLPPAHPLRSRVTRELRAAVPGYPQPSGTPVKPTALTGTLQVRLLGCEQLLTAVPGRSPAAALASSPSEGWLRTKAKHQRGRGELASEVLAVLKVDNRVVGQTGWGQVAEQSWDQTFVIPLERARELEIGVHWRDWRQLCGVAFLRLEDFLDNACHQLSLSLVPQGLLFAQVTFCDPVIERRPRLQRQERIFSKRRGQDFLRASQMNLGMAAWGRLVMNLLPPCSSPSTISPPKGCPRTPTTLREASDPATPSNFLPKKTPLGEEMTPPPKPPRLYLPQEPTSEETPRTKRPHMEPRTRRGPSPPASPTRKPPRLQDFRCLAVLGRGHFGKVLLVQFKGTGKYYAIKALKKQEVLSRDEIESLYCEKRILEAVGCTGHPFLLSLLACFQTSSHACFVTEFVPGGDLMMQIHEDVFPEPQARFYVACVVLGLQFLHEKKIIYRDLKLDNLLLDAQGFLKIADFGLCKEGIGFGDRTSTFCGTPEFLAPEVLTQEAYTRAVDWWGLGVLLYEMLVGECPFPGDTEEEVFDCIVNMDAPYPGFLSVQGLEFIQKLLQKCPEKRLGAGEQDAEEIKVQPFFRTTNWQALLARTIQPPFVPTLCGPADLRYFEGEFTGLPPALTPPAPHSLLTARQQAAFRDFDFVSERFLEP
T1 sequence (Q16512 whole entry, canonical isoform): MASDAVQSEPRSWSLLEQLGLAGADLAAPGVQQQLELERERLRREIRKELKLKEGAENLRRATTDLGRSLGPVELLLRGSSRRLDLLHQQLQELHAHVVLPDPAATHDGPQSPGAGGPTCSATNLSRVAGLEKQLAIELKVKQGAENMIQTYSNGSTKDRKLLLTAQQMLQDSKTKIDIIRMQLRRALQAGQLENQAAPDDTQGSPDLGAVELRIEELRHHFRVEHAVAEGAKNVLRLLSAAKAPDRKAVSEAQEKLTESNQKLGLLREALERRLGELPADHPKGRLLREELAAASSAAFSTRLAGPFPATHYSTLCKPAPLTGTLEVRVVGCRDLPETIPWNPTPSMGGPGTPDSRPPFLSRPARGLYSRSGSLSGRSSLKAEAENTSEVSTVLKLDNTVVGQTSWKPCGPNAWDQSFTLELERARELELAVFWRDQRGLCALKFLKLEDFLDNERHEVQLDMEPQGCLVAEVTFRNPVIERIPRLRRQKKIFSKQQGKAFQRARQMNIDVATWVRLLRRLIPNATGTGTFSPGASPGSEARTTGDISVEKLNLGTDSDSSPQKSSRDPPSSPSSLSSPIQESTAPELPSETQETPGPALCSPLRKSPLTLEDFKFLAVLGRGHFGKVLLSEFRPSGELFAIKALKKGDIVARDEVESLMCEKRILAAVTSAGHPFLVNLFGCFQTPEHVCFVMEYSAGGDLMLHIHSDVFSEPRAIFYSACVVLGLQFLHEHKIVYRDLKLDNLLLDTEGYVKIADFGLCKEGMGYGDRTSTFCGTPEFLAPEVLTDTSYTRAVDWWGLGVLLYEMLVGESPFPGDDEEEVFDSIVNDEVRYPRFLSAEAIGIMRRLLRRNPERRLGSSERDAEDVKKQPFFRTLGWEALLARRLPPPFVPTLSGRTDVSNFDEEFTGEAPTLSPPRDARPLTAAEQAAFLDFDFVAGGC

With `O=C1Nc2ccc3ncsc3c2/C1=C/c1c[nH]cn1` [Compound 5, PKR inhibitor], the Ki in assay [1] (setting [8]) worked out at 410 ± 50 nM; in assay [3] (setting [9]) it was 240 ± 30 nM; in assay [4] (setting [10]), 41 ± 7 nM. The Isoform selectivity entry in assay [2] is “PKN2”.

Turning to `Nc1ncnc2c1ncn2[C@@H]1O[C@H](COP(=O)(O)OP(=O)(O)O)[C@@H](O)[C@H]1O` [ADP], the Ki is 53000 ± 4000 nM in assay [1] (product inhibition, competitive with respect to ATP, 3 μM peptide, 31–1000 μM ATP, 1 nM enzyme, 100 μM arachidonic acid, read-out: PKN1 Ki); 170000 ± 14000 nM in assay [1] (product inhibition, non-competitive with respect to peptide, 50 μM ATP, 0.3–10 μM peptide, 1 nM enzyme, 100 μM arachidonic acid, read-out: PKN1 Kiapp); 69000 ± 5000 nM in assay [3] (product inhibition, competitive with respect to ATP, 5 μM peptide, 7.8–250 μM ATP, 4 nM enzyme, 5 μM arachidonic acid, read-out: PKN3 Ki); 320000 ± 12000 nM in assay [3] (product inhibition, non-competitive with respect to peptide, 50 μM ATP, 0.9–30 μM peptide, 4 nM enzyme, 5 μM arachidonic acid, read-out: PKN3 Kiapp); 26000 ± 4000 nM in assay [4] (product inhibition, competitive with respect to ATP, 2 μM peptide, 6–200 μM ATP, 2 nM enzyme, 100 μM arachidonic acid, read-out: PKN2 Ki); 65000 ± 5000 nM in assay [4] (product inhibition, non-competitive with respect to peptide, 20 μM ATP, 0.3–10 μM peptide, 2 nM enzyme, 100 μM arachidonic acid, read-out: PKN2 Kiapp).

By EC50 is commonly meant the concentration needed to bring the measured effect to its halfway point. Turning to Phosphatidylserine, the “PKN3 Maximal fold activation” value in assay [5] was below 2 fold. In addition, in assay [6], the “PKN1 Maximal fold activation” value is recorded as 15 fold and the EC50 is 3000 ± 1000 nM. The “PKN1 Maximal fold activation” value in assay [6] (listed as phosphatidylserine) is 10–16 fold. In assay [7], the “effect on PKN2 kinase activity” value is given as “not affected”. Moreover, the “PKN2 Maximal fold activation” value in assay [7] (setting [11]) is recorded as below 2 fold.

Turning to “phosphatidylinositol-4,5-bisphosphate [PIP2]”, the “PKN3 Maximal fold activation” value in assay [5] was below 2 fold. Further, the “PKN1 Maximal fold activation” value in assay [6] is reported as 14 fold. In addition, the 50% effective concentration (EC50) in assay [6] was found to be 5000 ± 1000 nM; in assay [7] (lipid activator, saturating ATP (500 μM), 3 μM peptide, 5 nM PKN2) it was 2000 ± 1000 nM. Also, the “effect on PKN2 kinase activity” value in assay [7] is on record as “increased”. Besides, in assay [7] (setting [11]), the “PKN2 Maximal fold activation” value is listed as 7 fold.

`Cn1cc(C2=C(c3cn(CCCSC(=N)N)c4ccccc34)C(=O)NC2=O)c2ccccc21` [Compound 2, Ro 31-8220]: the Ki was 170 ± 10 nM in assay [3] (setting [9]) and 17 ± 2 nM in assay [4] (setting [10]).

As for H-PRLQRQERIFSKRRG-OH [PKN3-PRL], the Ki in assay [3] (competitive with respect to peptide substrate, 250 μM ATP, 0.9–30 μM peptide, 4 nM enzyme, 5 μM arachidonic acid, read-out: PKN3 Ki with respect to peptide substrate) was determined as 5400 nM. Besides, in assay [3] (uncompetitive with respect to ATP, 6 μM peptide, 7.8–250 μM ATP, 4 nM enzyme, 5 μM arachidonic acid), the “PKN3 αKi with respect to ATP” value worked out at 1.3 µM.

Take `CCCCCCCC(=O)OC[C@H](CO)OC(=O)CCCCCCC` [DAG, 1,2-dioctanoyl-sn-glycerol]: the “PKN3 Maximal fold activation” value in assay [5] is below 2 fold. Moreover, the “PKN1 Maximal fold activation” value in assay [6] is given as below 2 fold. Moreover, in assay [7] (setting [11]), the “PKN2 Maximal fold activation” value was below 2 fold.

For `CN(C(Cc1ccc(OS(=O)(=O)c2cccc3cnccc23)cc1)C(=O)N1CCN(c2ccccc2)CC1)S(=O)(=O)c1cccc2cnccc12` (stereo not shown) [Compound 11, KN62], the Ki in assay [1] (setting [8]) was 2900 ± 700 nM; in assay [4] (setting [10]), above 5000 nM.

On to `O=S(=O)(c1cccc2cnccc12)N1CCCNCC1` [Compound 12, HA-1077], for which, in assay [1] (setting [8]), the Ki stood at 800 ± 100 nM.

In the case of `CO[C@@H]1[C@H](N(C)C(=O)c2ccccc2)C[C@H]2O[C@]1(C)n1c3ccccc3c3c4c(c5c6ccccc6n2c5c31)C(=O)NC4` [Compound 1, PKC412], in assay [3] (setting [9]), the Ki was below 0.2 nM.

As to `CN(C)CCCn1cc(C2=C(c3c[nH]c4ccccc34)C(=O)NC2=O)c2ccccc21` [Compound 3, GF 109203X], the figures for the Ki in assay [1] (setting [8]), in assay [3] (setting [9]) and in assay [4] (setting [10]) were 79 ± 8 nM, 2300 ± 500 nM and 90 ± 20 nM, respectively. Also, in assay [2] (from Ki values), the “selectivity for PKN1/2 over PKN3” value is “at least 25 fold”. For the same molecule, the Isoform selectivity entry in assay [2] is on record as “PKN1/2”.

Turning to `Oc1ccc(-c2nc(-c3ccncc3)c(-c3ccc(F)cc3)[nH]2)cc1` [Compound 9, SB-202190], the Ki in assay [1] (setting [8]) was above 5000 nM; in assay [3] (setting [9]) it was 4 ± 0.3 nM; in assay [4] (setting [10]), 2300 ± 400 nM.

With `O=P(O)(O)O[C@@H]1[C@H](O)[C@H](O)[C@@H](OP(=O)(O)O)[C@H](OP(=O)(O)O)[C@H]1O` [IP3, D-myo-inositol-1,3,5-triphosphate], the “PKN3 Maximal fold activation” value in assay [5] is below 2 fold. Further, in assay [6], the “PKN1 Maximal fold activation” value is below 2 fold. Further, the “PKN2 Maximal fold activation” value in assay [7] (setting [11]) is listed as below 2 fold.

With “phosphatidylinositol-3,4,5-triphosphate [PIP3]”, in assay [5], the “PKN3 Maximal fold activation” value is below 2 fold. In assay [6], the “PKN1 Maximal fold activation” value turned out to be 11 fold and the EC50 was determined as 2000 ± 1000 nM. Besides, in assay [7], the “effect on PKN2 kinase activity” value is “not affected”. In assay [7] (setting [11]), the “PKN2 Maximal fold activation” value was below 2 fold.

`CNCCNS(=O)(=O)c1cccc2cnccc12` [Compound 10, H-8]: the Ki in assay [1] (setting [8]) stood at 1800 ± 300 nM; in assay [3] (setting [9]) it was 10 ± 2 nM; in assay [4] (setting [10]), 1800 ± 300 nM.
